The values that follow come from patent US20230118642A1, “METHOD FOR TREATING THERAPY-RESISTANT MUC4+ CANCER” (CONSEJO NACIONAL DE INVESTIGACIONES CIENTÍFICAS Y TÉCNICAS, priority 2020, published 2023).

The test system of data set [1] is SNU-1 gastric cancer cell line. Put plainly: SNU-1 cell proliferation, Countess automatic cell count. The format is cell-based. The conditions noted are these: 72 h. On the procedure:
In order to extend our findings of the role of INB03 in increasing lapatinib inhibitory effect on HER2+ breast cancer cell proliferation to other tumor types, we used both drugs in the ovarian cancer SK-OV-3 cells and in the gastric SNU-1 cells. Both cell lines express HER2 and MUC4.
FIG. 22(A-B) INB03 enhances lapatinib inhibition in cell proliferation of ovarian and gastric cancer cell. Cell proliferation was evaluated in the SK-OV-3 ovarian cancer cell line (FIG. 22A) and in the SNU-1 gastric cancer cell line. Cells were treated with vehicle (DMSO 0.1%), lapatinib (Lap), or NB03 (10 μg/ml), alone or in different combinations for 72 h. (FIG. 22A) SK-OV-3 cells viability was analyzed by CellTiter Glo 2.0 assay. (FIG. 22B) SNU-1 cell proliferation was evaluated by cell count Countess automatic cell count.
(§1) FIG. 25(A-C) INB03 enhances sorafenib inhibition in cell proliferation of colon, gastric and triple-negative breast cancer cells. Cell proliferation was evaluated in the HT-29 colon cancer (FIG. 25A), SNU-1 gastric cancer (FIG. 25B) and in the in the HCC-70 triple-negative breast cancer cell lines (FIG. 25C). Cells were treated with vehicle (DMSO 0.1%), sorafenib (Soraf), or INB03 (10 μg/ml), alone or in different combinations for 72 h. (FIGS. 25A and B) HT-29 and SNU-1 cell proliferation was evaluated by cell count Countess automatic cell count. (FIG. 25C) HCC70 cell viability was analyzed by CellTiter Glo 2.0 assay.

Data set [2] concerns HER2+ breast cancer. As to conditions: patients with trastuzumab-resistant disease; cited from earlier work.
In data set [3] the test system is JIMT-1. Put plainly: JIMT-1 migration with lapatinib and TNF-blocking agents. The format is cell-based. Here is the method: (§2) Again, lapatinib is used in the metastatic setting (infra). The metastatic cascade is a multistep process that involves migration and invasion of tumor cells that pass through the basement membrane and extracellular matrix, the intravasation to the lymphatic or vascular circulation, the extravasation and the attachment of a new location to generate a secondary tumor. The migration ability of JIMT-1 treated with lapatinib and TNF-blocking agents was evaluated. […] To study MUC4 contribution on the inhibition of migration observed by simultaneous treatment of TNF-blocking drugs and lapatinib, the JIMT-1 cell line was transduced with a plasmid encoding a doxycycline-inducible shRNA targeting MUC4, and JIMT-1-shMUC4 cells were obtained (FIGS. 16 B and C).

For data set [4], the system named is JIMT-1-shMUC4 cells. Put plainly: JIMT-1-shMUC4 migration with lapatinib and TNF-blocking agents. The format is cell-based. On the procedure:
as §2

Data set [5] has as its system JIMT-1-shMUC4 cells. Kind of data set: JIMT-1-shMUC4 cell proliferation with lapatinib and TNFα blockade, cell count at 72 h. The format is cell-based. On the procedure: (§3) Then, to study the participation of MUC4 in lapatinib resistance, we transduced the trastuzumab-resistant JIMT-1 cell line with a plasmid encoding a doxycycline (Dox)-inducible shRNA targeting MUC4, and obtained JIMT-1-shMUC4 cells.
(§4) FIG. 18 TNFα blockade sensitizes lapatinib-resistant cells in vitro. Cell proliferation was evaluated in JIMT-1 and JIMT-1-shMUC4 cell lines by cell count at 72 h of treatment. Cells were treated with immunoglobulin G (IgG 5 μg/ml), lapatinib (Lap 1 μM), etanercept (E 5 μg/ml), or INB03 (DN; 10 μg/ml), alone or in different combinations. FIG. 18A. JIMT-1 wild type. FIGS. 18B and 18C JIMT-1-shMUC4 and in C cells were treated with Dox 10 μg/ml for 10 days before and during the experiment to assure MUC4 downregulation.

Data set [6] has as its system SK-OV-3 ovarian cancer cell line. Put plainly: SK-OV-3 cell viability, CellTiter Glo 2.0. As to conditions: lapatinib 2.5 μM alone, 72 h. The class given is cell-based.
Description: Cells were treated with vehicle (DMSO 0.1%), lapatinib (Lap), or NB03 (10 μg/ml), alone or in different combinations for 72 h. (FIG. 22A) SK-OV-3 cells viability was analyzed by CellTiter Glo 2.0 assay. […] Data was analyzed by one-way ANOVA coupled with a Tukey's post hoc test. The data as shown represents mean SEM. *p<0.05, **p<0.01.
For data set [7] the following is noted: stated without test; cited from earlier work.
In data set [8] the test system is MDA-MB-468 cell line. Kind of data set: MDA-MB-468 cell viability, CellTiter Glo 2.0. The class given is cell-based. As to conditions: Homo sapiens, 72 h, read-out: decrease of MDA-MB-468 cell viability. On the procedure:
FIG. 24 INB03 enhances erlotinib inhibition in cell viability of MDA-MB 468 triple-negative breast cancer cells. Cell viability was evaluated in the MDA-MB-468 cell line. Cells were treated with vehicle (DMSO 0.1%), erlotinib (erlot), or INB03 (10 μg/ml), alone or in different combinations for 72 h.
(ATP-based viability assays read luminescence as a measure of living cells.)

Data set [9] relates to HCC70 triple-negative breast cancer cell line. Kind of data set: HCC70 cell viability, CellTiter Glo 2.0. The class given is cell-based. As to conditions: 72 h. On the procedure:
as §1
FIG. 26 INB03 enhances cediranib inhibition in cell viability of HCC70 triple-negative breast cancer cells. Cell viability was evaluated in the HCC70 cell line. Cells were treated with vehicle (DMSO 0.1%), cediranib (cedir), or INB03 (10 μg/ml), alone or in different combinations for 72 h. Cell viability was analyzed by CellTiter Glo 2.0 assay.

The test system of data set [10] is HT-29 colon cancer cells. Put plainly: HT-29 cell proliferation, Countess automatic cell count. The format is cell-based. The conditions noted are these: 72 h. On the procedure: as §1
In data set [11] the test system is JIMT-1 cell line. Put plainly: JIMT-1 cell proliferation, [3H]-thymidine incorporation. The class given is cell-based. As to conditions: 48 h treatment, 18 h pulse; T 10 μg/ml, P 10 μg/ml, E 5 μg/ml, DN 2 μg/ml; vs IgG. Here is the method: A strategy of implementing a TNFα blockade was employed, either with Etanercept (E) or the dominant negative protein XPRO1595 (DN) in JIMT-1, de novo T and T+P resistant cell line which produces TNFα. JIMT-1 tumors were established in female nude mice to explore whether TNFα blockade overcomes T+P resistance. Animals were treated with 5 mg/kg of IgG, P, T+P, 10 mg/kg of DN or P+T+DN i.p. twice a week. […] Proliferation of cells treated with IgG, T, P, DN, E (10 μg/ml, 10 μg/ml, 10 μg/ml, 2 μg/ml and 5 μg/ml respectively) as monotherapy and in different combinations was evaluated by cell count or [3H]-thymidine incorporation. The combination of TNFα blockade with T+P inhibited cell proliferation vs. IgG, P+T, P+E, P+DN (p<0.0001).
Cell proliferation in JIMT-1 cell line was evaluated by ^3[H]-thymidine incorporation assay at 48 h of treatment with 18 h pulse (See Rivas M A, et al., Exp Cell Res 2008; 314:509-29, the contents of which are hereby incorporated by reference). […] The data as shown in FIG. 3 represents mean±standard deviation *p<0.05, **p<0.01, ***p<0.001 vs. IgG.
(In general: Incorporation of labelled thymidine or its analogues reports DNA synthesis.)

Data set [12] relates to JIMT-1 cell line. Kind of data set: JIMT-1 cell proliferation with lapatinib and TNFα blockade, cell count at 72 h. As to conditions: TNFα blocker simultaneously with lapatinib 1 μM, E 5 μg/ml, INB03 10 μg/ml. The format is cell-based. On the procedure: as §3, §4

`CS(=O)(=O)CCNCc1ccc(-c2ccc3ncnc(Nc4ccc(OCc5cccc(F)c5)c(Cl)c4)c3c2)o1` [lapatinib]: in data set [1] (lapatinib 1 μM alone), the “effect on proliferation of SNU-1 cells” value is reported as “no effect”. Besides, the “patients with clinical benefit” value in data set [2] is less than 30%. The JIMT-1 migration entry in data set [3] (each drug alone) is “no effect”. Also, the cell migration entry in data set [4] (JIMT-1-shMUC4 with doxycycline (MUC4 silenced), lapatinib) is recorded as “decrease in JIMT-1 cells migration”. Moreover, the cell proliferation result in data set [5] (JIMT-1-shMUC4 with Dox 10 μg/ml (MUC4 silenced), lapatinib) is “decrease in JIMT-1 cells proliferation”. Besides, the “effect on viability of SK-OV-3 cells” value in data set [6] is “no effect”. In addition, the “crossing of the blood-brain-barrier” value in data set [7] is given as “cross the blood-brain-barrier”.
As to `C#Cc1cccc(Nc2ncnc3cc(OCCOC)c(OCCOC)cc23)c1` [erlotinib], in data set [8] (erlotinib 1.25 μM alone), the cytotoxicity at 1.25 µM is 27%. Also, the cytotoxicity at 2.5 µM in [8] (erlotinib 2.5 μM alone) is 38%. Further, the cytotoxicity at 5 µM in [8] (erlotinib 5 μM alone) was determined as 48%.
Take `CNC(=O)c1cc(Oc2ccc(NC(=O)Nc3ccc(Cl)c(C(F)(F)F)c3)cc2)ccn1` [sorafenib]: the “effect on SNU-1 proliferation” value in data set [1] (sorafenib 1.5 μM alone) was “did not affect its proliferation”. Also, in data set [1] (sorafenib 3 μM alone), the “decrease of SNU-1 cell proliferation” value is recorded as 38%. In addition, in [9] (Homo sapiens, HCC70, sorafenib 1.5 μM alone, read-out: HCC70 viability reduction), the cytotoxicity at 1.5 µM amounted to 44%. In addition, the “effect on HCC70 viability” value in [9] (sorafenib 1 μM alone) was “no effect”. Further, the “effect on HT-29 cell proliferation” value in data set [10] (sorafenib 2.5 μM alone) was “no inhibitory effect”. The “reduction of HT-29 proliferation” value in data set [10] (sorafenib 10 μM alone) was determined as 62%.
With “pertuzumab: monoclonal antibody that disrupts HER2/HER3 dimerization”, in data set [11], the “cell proliferation in JIMT-1 cell line” value is “negligible, if any, impact”.
Take `COc1cc2c(Oc3ccc4[nH]c(C)cc4c3F)ncnc2cc1OCCCN1CCCC1` [cediranib]: the cytotoxicity at 2.5 µM in [9] (Homo sapiens, HCC70, cediranib 2.5 μM alone, read-out: effect on HCC70 cell viability) is 20%. The cytotoxicity at 5 µM in data set [9] (Homo sapiens, HCC70, cediranib 5 μM alone, read-out: effect on HCC70 cell viability) is 46%.
Consider etanercept, for which the JIMT-1 migration result in data set [3] (TNF blocker together with lapatinib) was “impairs JIMT-1 migration”; in data set [3] (each drug alone), “no effect”. Also, the cell migration result in data set [4] (JIMT-1-shMUC4 with doxycycline, TNF blocker added to lapatinib) was “did not further induce a decrease in cell migration”; in data set [4] (JIMT-1shMUC4 without doxycycline, TNF blocker with lapatinib), “decreased their migration”. In addition, the cell proliferation result in [5] (JIMT-1-shMUC4 with Dox, TNFα blocker added to lapatinib) is listed as “did not further induce a decrease in cell proliferation”. Besides, in [12], the JIMT-1 cell proliferation entry is recorded as “reduces JIMT-1 cell proliferation”.
